Experimental findings from the Kinase Knowledgebase extract (Sharma et al. 2016) are described below.

Structures are written as SMILES.

For the experiment, the target named is PIK3CG (human) (UniProt P48736). The experiment can be described thus: Inhibition of PIK3CG Kinase Activity.
Sequence of PIK3CG (human) (P48736 whole entry, looked up): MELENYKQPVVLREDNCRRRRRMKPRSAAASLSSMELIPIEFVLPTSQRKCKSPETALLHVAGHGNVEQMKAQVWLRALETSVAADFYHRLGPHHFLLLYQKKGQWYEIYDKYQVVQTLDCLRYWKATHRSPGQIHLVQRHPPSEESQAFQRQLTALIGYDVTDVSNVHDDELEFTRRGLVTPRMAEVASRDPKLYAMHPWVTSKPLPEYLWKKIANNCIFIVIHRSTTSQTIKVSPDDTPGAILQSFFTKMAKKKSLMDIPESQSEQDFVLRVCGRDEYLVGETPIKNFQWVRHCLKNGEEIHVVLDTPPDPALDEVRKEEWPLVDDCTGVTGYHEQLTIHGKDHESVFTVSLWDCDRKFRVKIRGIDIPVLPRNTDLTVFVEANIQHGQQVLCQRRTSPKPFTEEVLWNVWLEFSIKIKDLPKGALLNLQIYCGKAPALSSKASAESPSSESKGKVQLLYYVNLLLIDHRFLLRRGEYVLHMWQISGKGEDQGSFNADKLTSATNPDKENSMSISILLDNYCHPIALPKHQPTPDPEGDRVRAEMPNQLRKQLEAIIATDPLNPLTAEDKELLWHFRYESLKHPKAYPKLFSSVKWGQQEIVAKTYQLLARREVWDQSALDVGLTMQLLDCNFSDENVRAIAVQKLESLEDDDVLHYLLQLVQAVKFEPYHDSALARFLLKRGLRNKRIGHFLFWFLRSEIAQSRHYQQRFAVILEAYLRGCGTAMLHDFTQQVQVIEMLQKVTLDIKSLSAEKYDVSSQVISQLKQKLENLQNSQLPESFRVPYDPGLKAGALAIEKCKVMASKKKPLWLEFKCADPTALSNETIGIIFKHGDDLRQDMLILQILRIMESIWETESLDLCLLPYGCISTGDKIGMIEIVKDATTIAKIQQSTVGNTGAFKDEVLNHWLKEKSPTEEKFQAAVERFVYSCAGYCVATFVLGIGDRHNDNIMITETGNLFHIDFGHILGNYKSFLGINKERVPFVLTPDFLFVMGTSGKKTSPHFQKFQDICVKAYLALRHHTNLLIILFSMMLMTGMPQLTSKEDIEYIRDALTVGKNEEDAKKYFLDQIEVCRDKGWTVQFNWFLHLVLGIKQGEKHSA
With `CC(=O)Nc1nc2c(s1)-c1c(c(C3CCC3)nn1-c1ccc(C(=O)NC3CCN(C(C)C)CC3)cc1Cl)CC2`, the IC50 is less than 600 nM.
Turning to `CC(=O)Nc1nc2c(s1)-c1c(c(C3CC3)nn1C1CCC(C(=O)N[C@H]3CC[C@@H](N4CCCC4)CC3)CC1)CC2` (stereo partly drawn), the IC50 is less than 600 nM.
For `CC(=O)Nc1nc2c(s1)-c1c(c(C3CC3)nn1-c1ccc(C(=O)NC3CCN(CC4CCCC4)CC3)cc1C)CC2`, the IC50 was less than 600 nM.
For the compound `CC(=O)Nc1nc2c(s1)-c1c(c(C3CC3)nn1-c1ccc(C(=O)N[C@H]3CC[C@@H](N(C)CC4CC4)CC3)cc1C)CC2`, the IC50 was less than 600 nM.
For `CC(=O)Nc1nc2c(s1)-c1c(c(C3CC3)nn1-c1ccc(C(=O)N[C@H]3CC[C@@H](N4CCCC4)CC3)cc1Cl)CC2` the value was less than 600 nM; for `CC(=O)Nc1nc2c(s1)-c1c(c(C3CC3)nn1-c1ccc(C(=O)N[C@@H]3CCN(C4CCCC4)C3)c(Cl)c1)CC2`, less than 600 nM.
In the case of `CC(=O)Nc1nc2c(s1)-c1c(c(C3CC3)nn1-c1ccc(NCC3CCNCC3)cc1Cl)CC2` it was less than 600 nM; in that of `CC(=O)Nc1nc2c(s1)-c1c(c(C3CCC3)nn1-c1ccc(C(=O)N[C@H]3CC[C@@H](N4CCCCC4)CC3)cc1Cl)CC2`, less than 600 nM; in that of `CCCN1CCC(NC(=O)c2ccc(-n3nc(C4(C)CC4)c4c3-c3sc(NC(C)=O)nc3CC4)c(Cl)c2)CC1`, less than 600 nM.
In the case of `CC(=O)Nc1nc2c(s1)-c1c(c(C3CC3)nn1-c1ccc(C(=O)N[C@H]3CC[C@@H](N4CCCC4)CC3)cc1F)CC2` it was less than 600 nM.
Compound `CCN(C(=O)c1ccc(-n2nc(C3CC3)c3c2-c2sc(NC(C)=O)nc2CC3)c(F)c1)[C@H]1CC[C@@H](N2CCCC2)CC1` gave an IC50 of less than 600 nM.
For `CC(=O)Nc1nc2c(s1)-c1c(c(C3CC3)nn1-c1ccc(C(=O)N3CCC(N(C)C4CCCC4)CC3)c(C)c1)CC2` the value was less than 600 nM; for `CCN(C(=O)c1ccc(-n2nc(C3CC3)c3c2-c2sc(NC(C)=O)nc2CC3)cc1C)[C@H]1CC[C@@H](N2CCCC2)CC1`, less than 600 nM.
In the case of `CC(=O)Nc1nc2c(s1)-c1c(c(C3CC3)nn1-c1ccc(C(=O)N[C@H]3CC[C@@H](N(C)C)CC3)cc1Cl)CC2` it was less than 600 nM.
For `CC(=O)Nc1nc2c(s1)-c1c(c(C3CC3)nn1-c1ccc(C(=O)N[C@@H]3CCN(C4CCCCC4)C3)c(Cl)c1)CC2` the value was less than 600 nM; for `CCCN1CC[C@@H](NC(=O)c2ccc(-n3nc(C4CC4)c4c3-c3sc(NC(C)=O)nc3CC4)c(C)c2)C1`, less than 600 nM; for `CC(=O)Nc1nc2c(s1)-c1c(c(C3CC3)nn1-c1ccc(C(=O)N(C)C3CCN(C4CCCC4)C3)c(Cl)c1)CC2` (stereo not drawn), less than 600 nM.
In turn, `CC(=O)Nc1nc2c(s1)-c1c(c(C3CC3)nn1-c1ccc(C(=O)N(C)[C@H]3CC[C@@H](N4CCCC4)CC3)c(Cl)c1)CC2` gave an IC50 of less than 600 nM.
For `CC(=O)Nc1nc2c(s1)-c1c(c(C3(C)CC3)nn1-c1ccc(C(=O)NC3CCN(C4CCOCC4)CC3)cc1Cl)CC2` the value was less than 600 nM; for `CC(=O)Nc1nc2c(s1)-c1c(c(C3CC3)nn1C1CCN(C(=O)C3CCN(CC4CCCCC4)CC3)CC1)CC2`, less than 600 nM.
For `CC(=O)Nc1nc2c(s1)-c1c(c(C3CC3)nn1-c1ccc(C(=O)N[C@@H]3CCN(CC4CCCC4)C3)cc1Cl)CC2` the value was less than 600 nM; for `CC(=O)Nc1nc2c(s1)-c1c(c(C3CC3)nn1-c1ccc(CC(=O)NC3CCN(C4CCCC4)CC3)cc1Cl)CC2`, less than 600 nM; for `CC(=O)Nc1nc2c(s1)-c1c(c(C3CC3)nn1-c1ccc(C(=O)NC3CCN(C4CCCCC4)CC3)cc1Cl)CC2`, less than 600 nM.
For `COc1cc(-n2nc(C3CC3)c3c2-c2sc(NC(C)=O)nc2CC3)ccc1C(=O)N(C)C1CCC(N2CCCC2)CC1` (stereo not drawn) the value was less than 600 nM; for `CC(=O)Nc1nc2c(s1)-c1c(c(C3CC3)nn1-c1ccc(N(C)C(=O)[C@H]3CC[C@@H](N4CCCC4)CC3)cc1Cl)CC2`, less than 600 nM.
`CCCN1CCC(CNc2ccc(-n3nc(C4CC4)c4c3-c3sc(NC(C)=O)nc3CC4)c(Cl)c2)CC1` returned an IC50 of less than 600 nM.
For `CC(=O)Nc1nc2c(s1)-c1c(c(C3CC3)nn1-c1ccc(C(=O)N(C)[C@H]3CC[C@@H](N(C)CC4CCCC4)CC3)cc1C)CC2` the value was less than 600 nM; for `CC(=O)Nc1nc2c(s1)-c1c(c(C3CC3)nn1-c1ccc(NC(=O)[C@H]3CC[C@@H](N4CCCC4)CC3)cc1Cl)CC2`, less than 600 nM; for `CC(=O)Nc1nc2c(s1)-c1c(c(C3CC3)nn1-c1ccc(C(=O)NC3CCN(C4CCCC4)CC3)c(Cl)c1)CC2`, less than 600 nM.
In the case of `CC(=O)Nc1nc2c(s1)-c1c(c(C3CC3)nn1-c1ccc(C(=O)N(C)[C@H]3CC[C@@H](N(C)CC4CC4)CC3)cc1Cl)CC2` it was less than 600 nM.
In the case of `CC(=O)Nc1nc2c(s1)-c1c(c(C3CC3)nn1-c1ccc(C(=O)N[C@H]3CC[C@@H](N4CCCC4)CC3)c(C)c1)CC2` it was less than 600 nM; in that of `CC(=O)Nc1nc2c(s1)-c1c(c(C3CC3)nn1-c1ccc(C(=O)N(C)[C@@H]3CCN(CC4CCCC4)C3)cc1Cl)CC2`, less than 600 nM; in that of `CCN(C(=O)c1ccc(-n2nc(C3CC3)c3c2-c2sc(NC(C)=O)nc2CC3)c(Cl)c1)[C@H]1CC[C@@H](N2CCCC2)CC1`, less than 600 nM.
For `CC(=O)Nc1nc2c(s1)-c1c(c(C3CC3)nn1-c1ccc(O)cc1Cl)CC2`, the IC50 is less than 60 nM.
In the case of `CC(=O)Nc1nc2c(s1)-c1c(c(C3CC3)nn1C1CCN(C(=O)N3CCC(N(C)C)CC3)CC1)CC2` it was less than 600 nM.
In the case of `CC(=O)Nc1nc2c(s1)-c1c(c(C3CC3)nn1C1CCC(C(=O)N(C)[C@H]3CC[C@H](N4CCCC4)CC3)CC1)CC2` (stereo partly drawn) it was less than 600 nM; in that of `CC(=O)Nc1nc2c(s1)-c1c(c(C3CC3)nn1-c1ccc(C(=O)N[C@H]3CC[C@@H](N4CCOCC4)CC3)cc1Cl)CC2`, less than 600 nM.
In the case of `CC(=O)Nc1nc2c(s1)-c1c(c(C3CC3)nn1-c1ccc(C(=O)N3CCC(N4CCCC4)CC3)c(Cl)c1)CC2` it was less than 600 nM; in that of `CC(=O)Nc1nc2c(s1)-c1c(c(C3CC3)nn1-c1ccc(C(=O)N(C)[C@H]3CC[C@@H](N4CCCCC4)CC3)cc1C)CC2`, less than 600 nM; in that of `CC(=O)Nc1nc2c(s1)-c1c(c(C3CC3)nn1-c1ccc(C(=O)N(C)[C@H]3CCN(C4CCCCC4)C3)c(Cl)c1)CC2`, less than 600 nM.
The compound `CC(=O)Nc1nc2c(s1)-c1c(c(C3CC3)nn1-c1ccc(C(=O)N(C)[C@H]3CC[C@@H](N(C)CC4CCCC4)CC3)cc1F)CC2` gave an IC50 of less than 600 nM.
In the case of `COc1cc(-n2nc(C3CC3)c3c2-c2sc(NC(C)=O)nc2CC3)ccc1C(=O)N(C)C1CCN(C2CCCC2)CC1` it was less than 600 nM; in that of `CC(=O)Nc1nc2c(s1)-c1c(c(C3CC3)nn1-c1ccc(C(=O)NC3CCN(C4CCCCC4)CC3)c(Cl)c1)CC2`, less than 600 nM; in that of `CC(=O)Nc1nc2c(s1)-c1c(c(C3CC3)nn1C1CCC(C(=O)N(C)[C@H]3CC[C@@H](N4CCCC4)CC3)CC1)CC2` (stereo partly drawn), less than 600 nM.
For the compound `CNC(=O)c1ccc(-n2nc(C3CCCC3)c3c2-c2sc(NC(C)=O)nc2CC3)c(Cl)c1`, the IC50 was less than 600 nM.
For `CC(=O)Nc1nc2c(s1)-c1c(c(C3CC3)nn1-c1ccc(NCC3CCN(C)CC3)cc1Cl)CC2`, the half-inhibitory concentration (IC50) was less than 600 nM.
Regarding `CC(=O)Nc1nc2c(s1)-c1c(c(C3CCC3)nn1-c1ccc(C(=O)NC3CCN(C4CCCC4)CC3)cc1Cl)CC2`, the IC50 was less than 600 nM.
For `CCN(CC)CCN1CCN(C(=O)c2ccc(-n3nc(C4CC4)c4c3-c3sc(NC(C)=O)nc3CC4)cc2Cl)CC1` the value was less than 600 nM.
